Source: patent US20020004611A1 (Cargill, Incorporated, priority 1997, published 2002)

Columns and labels:
Type in all cases: physicochemical
[1] = Chiral purity of lactic acid after heating during triethylamine evaporation (Example 5)
Protocol: The back extraction was scaled up to allow the distillation experiment. […] The triethylamine evaporated initially at 23° C. and 10 mm Hg. […] About 69% of the triethylamine evaporated out. […].
The remaining mixture was heated to 110° C. where it was held for 80 minutes. At this point, 96% of the triethylamine was evaporated.

[2] = Single stage extraction of lactic acid from fermentation broth with different solvents (Example 20); conditions: broth pH 3.87
Source text: Fermentation broth with a final pH value of 3.87 and a total lactate material concentration of 79 g/liter as determined by high performance liquid chromatography was obtained. A number of different solvents were contacted with the broth to determine the lactic acid recovery in a single stage. […] For the 100% Alamine 336 solvent, two organic phases were isolated and titrated and both values are reported. The partition coefficient is not reported for this system.

[3] = Back extraction of lactic acid from Alamine 336 into second polar liquid phase (Example 4)
Protocol: Two solutions of lactic acid and […] 336 were made by contacting the […] […] The samples were held at the specified temperature in an oil bath for about 45 to 60 minutes with regular mixing. […] A similar procedure was used for contacting […] […] Phases were allowed to settle at specified temperature and then quickly separated by piping out the bottom phase. […] 336 concentrations. In all cases, the […] 336 phase was the least dense phase or the top phase. […] 336 concentrations in the top and bottom phases. […] In some of the solvents, there was a significant amount of […] 336 co-extracted into the polar liquid phase. Dimethyl sulfoxide looks like a favorable solvent for this type of process because of the good selectivity for the lactic acid over the […] 336.

[4] = Three successive contacts of fermentation broth with fresh extracting solvent (Example 21); conditions: 89 wt % Alamine 336, 9 wt % dodecanol, 2 wt % IsoPar K; for Lactic Acid Aqueous Phase wt % / Lactic Acid Organic Phase wt %: aqueous to organic phase ratio 3.0
Source text: Fermentation broth with a final pH of 3.87 and a total lactate material concentration of 79 g/liter as determined by high performance liquid chromatography was obtained.

[5] = solvent 30 wt % TOPO, 70 wt % MIBK
[6] = solvent 82 wt % A336, 10 wt % OctOH, 8 wt % IPK
[7] = solvent 89 wt % A336, 9 wt % DodecOH, 2 wt % IPK

## CC(O)C(=O)O (stereo not drawn) [lactic acid, 2-hydroxypropionic acid]
[1]; 21.5 wt % lactic acid in triethylamine and N-methyl-2-pyrrolidinone, 55° C. 10 mm Hg two hours, then 110° C. 80 minutes
  chiral purity after heating: not significantly changed
[1]; 43 wt % lactic acid in triethylamine, 10 mm Hg, heated to 120° C., held 90 minutes
  chiral purity of the lactic acid after heating: not changed significantly
[2]; [5]
  Lactic Acid Aqueous Phase wt %: 2.24 wt %
  Lactic Acid Organic Phase wt %: 2.36 wt %
  Partition Coefficient: 1.05
[2]; [6]
  Lactic Acid Aqueous Phase wt %: 1.52 wt %
  Lactic Acid Organic Phase wt %: 5.09 wt %
  Partition Coefficient: 3.35
[2]; [7]
  Lactic Acid Aqueous Phase wt %: 4.76 wt %
  Lactic Acid Organic Phase wt %: 1.84 wt %
  Partition Coefficient: 2.6
[2]; solvent 100% A336
  Lactic Acid Aqueous Phase wt %: 2.34 wt %
[3]; solvent Lactide, 140 °C
  Partition Coefficient (lactic acid, Alamine 336 top phase / bottom polar liquid phase): 0.82
[3]; solvent Lactide, 140 °C, Bottom phase, calculated from overall mass balance
  Lactic acid Wt %: 2.98^2 Wt %
[3]; solvent Lactide, 140 °C, Top (Alamine 336) phase
  Lactic acid Wt %: 2.44 Wt %
[3]; solvent NMP, 90 °C
  Partition Coefficient (lactic acid, Alamine 336 top phase / bottom polar liquid phase): 0.29
[3]; solvent NMP, 90 °C, Bottom (polar liquid) phase
  Lactic acid Wt %: 1.13 Wt %
[3]; solvent NMP, 90 °C, Top (Alamine 336) phase
  Lactic acid Wt %: 0.33 Wt %
[3]; solvent NMP, 110 °C
  Partition Coefficient (lactic acid, Alamine 336 top phase / bottom polar liquid phase): 0.22
[3]; solvent NMP, 110 °C, Bottom (polar liquid) phase
  Lactic acid Wt %: 12.2 Wt %
[3]; solvent NMP, 110 °C, Top (Alamine 336) phase
  Lactic acid Wt %: 2.73 Wt %
[4]; Stage 1
  Partition Coefficient: 2.5
  Lactic Acid Aqueous Phase wt %: 1.55 wt %
  Lactic Acid Organic Phase wt %: 3.9 wt %
[4]; Stage 2
  Partition Coefficient: 1.25
  Lactic Acid Aqueous Phase wt %: 1.09 wt %
  Lactic Acid Organic Phase wt %: 1.36 wt %
[4]; Stage 3
  Partition Coefficient: 0.84
  Lactic Acid Aqueous Phase wt %: 0.88 wt %
  Lactic Acid Organic Phase wt %: 0.74 wt %
